Measured values taken from US7812170B2, “Insecticides” (Syngenta Crop Protection, Inc., priority 2004, dated 2010).

Tests used:
Assay type in all cases: in vivo
Myzus persicae = test: Activity against Myzus persicae (foliar application); settings: 400 ppm active ingredient, spray on infected pea seedlings, 20°, 3 and 6 days, read-out: percentage reduction in the population (% activity)
Method: Activity Against Myzus persicae (Foliar Application) Pea seedlings are infected with Myzus persicae, subsequently sprayed with a spray mixture comprising 400 ppm of active ingredient and then incubated at 20°. 3 and 6 days later, the percentage reduction in the population (% activity) is determined by comparing the number of dead aphids between the treated and untreated plants.

Plutella xylostella = test: Activity against Plutella xylostella (sprayed cabbage plants); settings: 72 h, 400 ppm active ingredient, sprayed young cabbage plants, 3rd instar caterpillars, 3 days, read-out: percentage reduction in the population and in the feeding damage (% activity)
Method: (§1) Activity Against Plutella xylostella Young cabbage plants are sprayed with an aqueous emulsion spray mixture comprising 400 ppm of active ingredient and, after the spray coating has dried on, populated with 10 caterpillars (3rd instar) of Plutella xylostella and introduced into a plastic container. 3 days later, the percentage reduction in the population and in the feeding damage (% activity) are determined by comparing the number of dead caterpillars and the feeding damage between the treated and untreated plants.

Spodoptera littoralis = test: Activity against Spodoptera littoralis (sprayed soya plants); settings: 72 h, 400 ppm active ingredient, sprayed young soya plants, 1st instar caterpillars, 3 days, read-out: percentage reduction in the population and in the feeding damage (% activity)
Method: as §1, with “Spodoptera littoralis” for “Plutella xylostella”, “soya” for “cabbage”, “(1st” for “(3rd”

Heliothis virescens = test: Activity against Heliothis virescens (foliar application); settings: 144 h, 400 ppm active ingredient, sprayed young soya plants, 1st instar caterpillars, 6 days, read-out: percentage reduction in the population and in the feeding damage (% activity)
Method: as §1, with “Against Heliothis virescens (Foliar Application)” for “Against Plutella xylostella”, “Young soya” for “Young cabbage”, “caterpillars (1st” for “caterpillars (3rd”, “of Heliothis virescens” for “of Plutella xylostella”, “container. 6” for “container. 3”

Diabrotica balteata = test: Activity against Diabrotica balteata (sprayed maize seedlings); settings: 144 h, 400 ppm active ingredient, 2nd instar larvae, 6 days, read-out: percentage reduction in the population (% activity)
Method: Activity Against Diabrotica balteata Maize seedlings are sprayed with an aqueous emulsion spray mixture comprising 400 ppm of active ingredient and, after the spray coating has dried on, populated with 10 larvae (2nd instar) of Diabrotica balteata and introduced into a plastic container. 6 days later, the percentage reduction in the population (% activity) is determined by comparing the number of dead larvae between the treated and untreated plants.

Measured: inhibition at 400 ppm

CNC(=O)c1cc2ccccc2c(Cl)c1NC(=O)c1cc(C(F)(F)F)nn1-c1ncccc1Cl [Compound T1.1]
> 80%: Myzus persicae | Plutella xylostella | Spodoptera littoralis | Heliothis virescens | Diabrotica balteata

CC(C)NC(=O)c1cc2ccccc2c(Cl)c1NC(=O)c1cc(C(F)(F)F)nn1-c1ncccc1Cl [Compound T1.3]
> 80%: Plutella xylostella | Spodoptera littoralis | Heliothis virescens | Diabrotica balteata

CNC(=O)c1cc2ccccc2c(Br)c1NC(=O)c1cc(C(F)(F)F)nn1-c1ncccc1Cl [Compound T7.1]
> 80%: Myzus persicae | Plutella xylostella | Spodoptera littoralis | Heliothis virescens | Diabrotica balteata

CC(C)NC(=O)c1cc2ccccc2c(Br)c1NC(=O)c1cc(C(F)(F)F)nn1-c1ncccc1Cl [Compound T7.3]
> 80%: Plutella xylostella | Spodoptera littoralis | Heliothis virescens | Diabrotica balteata

CNC(=O)c1cc2c([N+](=O)[O-])cccc2c(Cl)c1NC(=O)c1cc(C(F)(F)F)nn1-c1ncccc1Cl [Compound T76.1]
> 80%: Plutella xylostella | Spodoptera littoralis | Heliothis virescens

CC(C)NC(=O)c1cc2c([N+](=O)[O-])cccc2c(Cl)c1NC(=O)c1cc(C(F)(F)F)nn1-c1ncccc1Cl [Compound T76.3]
> 80%: Plutella xylostella | Spodoptera littoralis | Heliothis virescens
